Here are results for 19 molecules from US12662490B2, “Heterocyclic compounds” (Hoffmann-La Roche Inc., priority 2019, dated 2026).

This assay has as its target T1, MAGL (Homo sapiens, UniProt Q99685).
T1 sequence (Q99685 1-303): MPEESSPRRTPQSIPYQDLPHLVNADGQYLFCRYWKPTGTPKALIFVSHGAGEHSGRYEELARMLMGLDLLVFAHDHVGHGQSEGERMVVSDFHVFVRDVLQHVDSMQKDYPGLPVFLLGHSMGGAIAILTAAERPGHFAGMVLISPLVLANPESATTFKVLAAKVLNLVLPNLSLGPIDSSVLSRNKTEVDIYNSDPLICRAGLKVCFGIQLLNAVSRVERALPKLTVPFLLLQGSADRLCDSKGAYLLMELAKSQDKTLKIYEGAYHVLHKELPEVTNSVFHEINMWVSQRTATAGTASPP
Briefly: 2-AG assay (MAGL inhibitory activity; hydrolysis of 2-arachidonoylglycerol to arachidonic acid followed by mass spectrometry). Conditions: 15 min preincubation at RT, 8 μM 2-arachidonoylglycerol, 30 min at RT, RapidFire MS readout. The class given is biochemical. The gist of the method:
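Compounds (final 12.5 μM to […], 3-fold steps) preincubated 15 min at RT with MAGL ([…]) in 50 mM TRIS, 1 mM EDTA, Tween buffer. Reaction started with 8 μM 2-arachidonoylglycerol, run 30 min at RT, quenched with ACN containing d8-arachidonic acid. Arachidonic acid quantified by RapidFire SPE-triple quadrupole MS (negative ESI), activity from arachidonic acid/d8 ratio.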

Broadly, the IC50 is the point on the concentration scale where inhibition reaches its midpoint. `COc1cccc(C(=O)N2CCN3C[C@@](O)(c4csc(-c5ccc(F)cc5)n4)OC[C@@H]3C2)c1Cl` [Example 139, [(3S,9aS)-3-[2-(4-fluorophenyl)thiazol-4-yl]-3-hydroxy-1,4,6,7,9,9a-hexahydropyrazino[2,1-c][1,4]oxazin-8-yl]-(2-chloro-3-methoxy-phenyl)methanone] gave an IC50 of 254 nM.
The same measure for `COc1cccc(C(=O)N2CCN3C[C@@H](c4ccc(F)c(Br)c4)OC[C@@H]3C2)c1Cl` [Example 6, [(3R,9aS)-3-(3-bromo-4-fluoro-phenyl)-3,4,6,7,9,9a-hexahydro-1H-pyrazino[2,1-c][1,4]oxazin-8-yl]-(2-chloro-3-methoxy-phenyl)methanone]: 10.9 nM; for `O=C(c1cccc(-c2c[nH]nc2F)c1)N1CCN2C[C@@](O)(c3ccc(C(F)(F)F)nc3)OC[C@@H]2C1` [Example 81, [(3R,9aS)-3-hydroxy-3-[6-(trifluoromethyl)-3-pyridyl]-1,4,6,7,9,9a-hexahydropyrazino[2,1-c][1,4]oxazin-8-yl]-[3-(3-fluoro-1H-pyrazol-4-yl)phenyl]methanone]: 80.4 nM.
Molecule `N#Cc1cc(-c2cc(F)cc(C(=O)N3CCN4C[C@@H](c5c[nH]c(C(F)(F)F)cc5=O)OC[C@@H]4C3)c2Cl)c[nH]1` [Example 132, 4-[3-[(3R,9aS)-3-[4-oxo-6-(trifluoromethyl)-1H-pyridin-3-yl]-3,4,6,7,9,9a-hexahydro-1H-pyrazino[2,1-c][1,4]oxazine-8-carbonyl]-2-chloro-5-fluoro-phenyl]-1H-pyrrole-2-carbonitrile] gave an IC50 of 131 nM.
The result for `O=C(c1cccc(-c2cn[nH]c2)c1Cl)N1CCN2C[C@@](O)(c3ccc(C(F)(F)F)nc3)OC[C@@H]2C1` [Example 82, [(3R,9aS)-3-hydroxy-3-[6-(trifluoromethyl)-3-pyridyl]-1,4,6,7,9,9a-hexahydropyrazino[2,1-c][1,4]oxazin-8-yl]-[2-chloro-3-(1H-pyrazol-4-yl)phenyl]methanone] reads 15.9 nM.
The result for `COc1cccc(C(=O)N2CCN3C[C@@](O)(c4ccc(Cl)c(F)c4)OC[C@@H]3C2)c1Cl` [Example 120, [(3R,9aS)-3-(4-chloro-3-fluoro-phenyl)-3-hydroxy-1,4,6,7,9,9a-hexahydropyrazino[2,1-c][1,4]oxazin-8-yl]-(2-chloro-3-methoxy-phenyl)methanone] reads 42.4 nM; that for `COc1cc(OC)c(Cl)c(C(=O)N2CCN3C[C@@H](c4ccc(F)c(Cl)c4)OC[C@@H]3C2)c1` [Example 18, [(3R,9aS)-3-(3-chloro-4-fluoro-phenyl)-3,4,6,7,9,9a-hexahydro-1H-pyrazino[2,1-c][1,4]oxazin-8-yl]-(2-chloro-3,5-dimethoxy-phenyl)methanone], 51.2 nM; that for `O=C(c1cccc(OC(F)(F)F)c1F)N1CCN2C[C@@H](c3ccc(F)c(Cl)c3)OC[C@@H]2C1` [Example 21, [(3R,9aS)-3-(3-chloro-4-fluoro-phenyl)-3,4,6,7,9,9a-hexahydro-1H-pyrazino[2,1-c][1,4]oxazin-8-yl]-[2-fluoro-3-(trifluoromethoxy)phenyl]methanone], 746 nM.
The same measure for `COc1cccc(C(=O)N2CCN3C[C@H](c4cc(Cl)c(Cl)cn4)OC[C@H]3C2)c1Cl` (single isomer, unassigned) [Example 66]: 531 nM.
Regarding `O=C(c1cccc(-c2c[nH]c(=O)o2)c1Cl)N1CCN2C[C@@H](c3ccc(F)c(Cl)c3)OC[C@@H]2C1` [Example 121, 5-[3-[(3R,9aS)-3-(3-chloro-4-fluoro-phenyl)-3,4,6,7,9,9a-hexahydro-1H-pyrazino[2,1-c][1,4]oxazine-8-carbonyl]-2-chloro-phenyl]-3H-oxazol-2-one], the IC50 is 46.4 nM.
Molecule `O=C(c1cccc(-c2c[nH]nc2F)c1Cl)N1CCN2C[C@@](F)(c3ccc(C(F)(F)F)nc3)OC[C@@H]2C1` [Example 88, [2-chloro-3-(3-fluoro-1H-pyrazol-4-yl)phenyl]-[(3S,9aS)-3-fluoro-3-[6-(trifluoromethyl)-3-pyridyl]-1,4,6,7,9,9a-hexahydropyrazino[2,1-c][1,4]oxazin-8-yl]methanone] had an IC50 of 10.7 nM.
The result for `COc1cccc(C(=O)N2CCN3CC(c4ccc(F)c(-c5ccn(C)c5)c4)OC[C@@H]3C2)c1Cl` (stereo partly drawn) [Example 156, [(9aS)-3-[4-fluoro-3-(1-methylpyrrol-3-yl)phenyl]-3,4,6,7,9,9a-hexahydro-1H-pyrazino[2,1-c][1,4]oxazin-8-yl]-(2-chloro-3-methoxy-phenyl)methanone] reads 815 nM.
As for `O=C(c1cccc(-c2cccnn2)c1Cl)N1CCN2C[C@@H](c3ccc(F)c(Cl)c3)OC[C@@H]2C1` [Example 31, [(3R,9aS)-3-(3-chloro-4-fluoro-phenyl)-3,4,6,7,9,9a-hexahydro-1H-pyrazino[2,1-c][1,4]oxazin-8-yl]-(2-chloro-3-pyridazin-3-yl-phenyl)methanone], the midpoint of inhibition, the IC50, lay at 173 nM.
On to `N#Cc1ncc(-c2cccc(C(=O)N3CCN4C[C@@](O)(c5ccc(F)c(F)c5)OC[C@@H]4C3)c2Cl)[nH]1` [Example 152, 5-[3-[(3R,9aS)-3-(3,4-difluorophenyl)-3-hydroxy-1,4,6,7,9,9a-hexahydropyrazino[2,1-c][1,4]oxazine-8-carbonyl]-2-chloro-phenyl]-1H-imidazole-2-carbonitrile], for which half-maximal inhibition (IC50) required 581 nM.
The same measure for `COc1cccc(C(=O)N2CCN3C[C@@](O)(c4ccc(F)c(Cl)c4)OC[C@@H]3C2)c1Cl` [Example 45, [(3R,9aS)-3-(3-chloro-4-fluoro-phenyl)-3-hydroxy-1,4,6,7,9,9a-hexahydropyrazino[2,1-c][1,4]oxazin-8-yl]-(2-chloro-3-methoxy-phenyl)methanone]: 19.4 nM; for `N#Cc1cc([C@@H]2CN3CCN(C(=O)c4cccc(-c5c[nH]nc5F)c4Cl)C[C@H]3CO2)ccc1F` [Example 72, 5-[(3R,9aS)-8-[2-chloro-3-(3-fluoro-1H-pyrazol-4-yl)benzoyl]-3,4,6,7,9,9a-hexahydro-1H-pyrazino[2,1-c][1,4]oxazin-3-yl]-2-fluoro-benzonitrile]: 61.4 nM.
The same measure for `COc1cccc(C(=O)N2CCN3C[C@@H](c4cc(Cl)ccn4)OC[C@@H]3C2)c1Cl` [Example 91, [(3S,9aS)-3-(4-chloro-2-pyridyl)-3,4,6,7,9,9a-hexahydro-1H-pyrazino[2,1-c][1,4]oxazin-8-yl]-(2-chloro-3-methoxy-phenyl)methanone]: 232 nM; for `Cc1cc(-c2cccc(C(=O)N3CCN4C[C@@H](c5ccc(F)c(Cl)c5)OC[C@@H]4C3)c2Cl)cc(=O)[nH]1` [Example 123, 4-[3-[(3R,9aS)-3-(3-chloro-4-fluoro-phenyl)-3,4,6,7,9,9a-hexahydro-1H-pyrazino[2,1-c][1,4]oxazine-8-carbonyl]-2-chloro-phenyl]-6-methyl-1H-pyridin-2-one]: 55.7 nM; for `COc1ccc(F)c(C(=O)N2CCN3C[C@H](c4ccc(F)c(Cl)c4)OC[C@@H]3C2)c1Cl` [Example 159, [(3S,9aS)-3-(3-chloro-4-fluoro-phenyl)-3,4,6,7,9,9a-hexahydro-1H-pyrazino[2,1-c][1,4]oxazin-8-yl]-(2-chloro-6-fluoro-3-methoxy-phenyl)methanone]: 1480 nM.
